Assay results taken from patent US10208089B2, “Modulation of complement activity” (priority 2014, dated 2019).
Starred links: 1 amine or outer side, 2 acyl side, 3 side chain; linkers in the order of their positions; H or OH if unused. Positions of bridges follow the written chain, without caps; N, C: chain ends. Non-standard residues stand in square brackets, D forms with d. Residues, ends and D or L forms follow the SMILES beside them. Trp(5-F) = N[C@@H](Cc1c[nH]c2ccc(F)cc12)C(=O)O; Trp(7-aza) = N[C@@H](Cc1c[nH]c2ncccc12)C(=O)O; Phg(2-OMe) = COc1ccccc1[C@H](N)C(=O)O; mXylylene = c1cc(C[*:1])cc(C[*:2])c1; hPhe = N[C@@H](CCc1ccccc1)C(=O)O; dChg = N[C@@H](C(=O)O)C1CCCCC1; Chg = N[C@H](C(=O)O)C1CCCCC1; Phg = N[C@H](C(=O)O)c1ccccc1; Tle = CC(C)(C)[C@H](N)C(=O)O; NMeS = CN[C@@H](CO)C(=O)O; Nva = CCC[C@H](N)C(=O)O; Aib = CC(C)(N)C(=O)O

Target: C5 (Homo sapiens, UniProt P01031)
Sequence (P01031 19-1676): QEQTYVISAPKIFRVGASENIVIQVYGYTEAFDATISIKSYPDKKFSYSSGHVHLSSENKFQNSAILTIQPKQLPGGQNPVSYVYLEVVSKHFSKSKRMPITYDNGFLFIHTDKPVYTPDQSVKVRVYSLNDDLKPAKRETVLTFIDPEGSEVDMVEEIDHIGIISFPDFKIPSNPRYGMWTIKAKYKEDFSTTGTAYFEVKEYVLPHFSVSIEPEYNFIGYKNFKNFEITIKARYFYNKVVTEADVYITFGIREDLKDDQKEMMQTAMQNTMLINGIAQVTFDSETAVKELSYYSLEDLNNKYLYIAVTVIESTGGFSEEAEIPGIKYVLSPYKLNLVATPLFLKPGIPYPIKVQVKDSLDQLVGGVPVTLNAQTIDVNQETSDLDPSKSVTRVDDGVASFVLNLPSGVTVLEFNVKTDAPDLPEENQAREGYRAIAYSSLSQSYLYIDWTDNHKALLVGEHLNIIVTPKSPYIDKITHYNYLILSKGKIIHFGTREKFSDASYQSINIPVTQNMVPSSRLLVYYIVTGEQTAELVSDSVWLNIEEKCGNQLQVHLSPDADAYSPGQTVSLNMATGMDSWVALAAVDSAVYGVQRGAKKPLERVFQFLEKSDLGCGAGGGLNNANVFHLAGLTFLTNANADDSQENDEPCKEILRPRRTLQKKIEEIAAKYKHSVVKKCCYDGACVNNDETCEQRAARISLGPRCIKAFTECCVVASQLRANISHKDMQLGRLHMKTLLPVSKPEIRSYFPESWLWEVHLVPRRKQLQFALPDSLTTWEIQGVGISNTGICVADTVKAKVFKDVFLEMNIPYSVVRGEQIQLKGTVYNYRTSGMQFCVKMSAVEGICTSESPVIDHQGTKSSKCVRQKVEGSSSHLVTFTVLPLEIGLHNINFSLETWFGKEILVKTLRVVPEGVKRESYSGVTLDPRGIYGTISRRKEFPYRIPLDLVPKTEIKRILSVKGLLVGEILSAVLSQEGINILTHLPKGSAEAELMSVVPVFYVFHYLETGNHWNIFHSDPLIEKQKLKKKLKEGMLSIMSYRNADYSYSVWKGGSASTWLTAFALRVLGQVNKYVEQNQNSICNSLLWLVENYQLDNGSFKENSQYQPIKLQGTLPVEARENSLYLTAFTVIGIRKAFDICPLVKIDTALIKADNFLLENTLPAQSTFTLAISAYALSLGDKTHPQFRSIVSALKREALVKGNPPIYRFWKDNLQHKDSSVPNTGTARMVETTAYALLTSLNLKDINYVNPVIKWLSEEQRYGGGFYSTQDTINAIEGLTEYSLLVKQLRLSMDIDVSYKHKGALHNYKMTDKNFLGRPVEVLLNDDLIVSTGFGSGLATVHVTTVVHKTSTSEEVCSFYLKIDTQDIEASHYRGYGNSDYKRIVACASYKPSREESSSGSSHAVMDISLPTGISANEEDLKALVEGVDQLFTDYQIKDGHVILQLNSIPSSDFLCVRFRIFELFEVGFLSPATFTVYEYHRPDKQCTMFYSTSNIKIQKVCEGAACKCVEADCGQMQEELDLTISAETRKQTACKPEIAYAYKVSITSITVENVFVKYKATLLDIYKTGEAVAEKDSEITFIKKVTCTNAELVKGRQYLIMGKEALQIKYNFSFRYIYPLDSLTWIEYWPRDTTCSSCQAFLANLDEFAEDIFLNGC
Assay: Human hemolysis assay (RBC lysis assay using complete human sera)
Format: cell-based
Design: with complete human sera (Complement Technology, Tyler Tex.) and polypeptides; tissue Complement Technology, Tyler Tex; host or cells: complete human serum
Settings: 7-azatryptophan variant polypeptides of R3002; inhibition of red blood cell lysis

SMILES	IC50 [µM]
CCC[C@H](NC(=O)[C@@H](NC(=O)[C@@H]1CCCN1C(=O)[C@H](Cc1ccc(O)cc1)NC(=O)[C@H](CCC(=O)O)NC(=O)[C@H](Cc1c[nH]c2ccc(OC)cc12)NC(=O)[C@H](Cc1ccc(O)cc1)NC(=O)[C@@H](NC(=O)[C@H](CC(N)=O)NC(=O)[C@H](CCC(=O)O)NC(=O)[C@H](Cc1ccc(O)cc1)NC(C)=O)C(C)(C)C)c1ccccc1)C(N)=O [Compound R3094, Ac-Y-E-N-Tbg-Y-(5-MeO)W-E-Y-P-Phg-Nvl-NH2]	> 100

Same assay, conditions: 7-azatryptophan variant polypeptides of R3008; inhibition of red blood cell lysis

SMILES	IC50 [µM]
CCC[C@H](NC(=O)[C@@H]1CSCc2cccc(c2)CSC[C@H](NC(=O)[C@H](CCC)NC(C)=O)C(=O)N[C@@H](c2ccccc2)C(=O)N[C@@H]([C@@H](C)O)C(=O)N[C@@H](Cc2c[nH]c3ccc(F)cc23)C(=O)N[C@@H](CCC(=O)O)C(=O)N[C@@H](Cc2ccc(O)cc2)C(=O)N(C)[C@@H](CO)C(=O)N[C@@H](C)C(=O)N1)C(N)=O [Compound R3088, [mXyly1(2,10)]Ac-Nvl-C-Phg-T-(5-F)W-E-Y-(N-Me)S-A-C-Nvl-NH2] (Ac-[Nva]C[Phg]T[Trp(5-F)]EY[NMeS]AC[Nva]-NH2; linker 2-10 via mXylylene)	> 100
CCC[C@H](NC(=O)[C@@H]1CSCc2cccc(c2)CSC[C@H](NC(=O)[C@H](CCC)NC(C)=O)C(=O)N[C@@H](c2ccccc2)C(=O)N[C@@H]([C@@H](C)O)C(=O)N[C@@H](Cc2ccccc2)C(=O)N[C@@H](CCC(=O)O)C(=O)N[C@@H](Cc2ccc(O)cc2)C(=O)N(C)[C@@H](CO)C(=O)N[C@@H](C)C(=O)N1)C(N)=O [Compound R3092, [mXylyl(2,10)]Ac-Nvl-C-Phg-T-F-E-Y-(N-Me)S-A-C-Nvl-NH2] (Ac-[Nva]C[Phg]TFEY[NMeS]AC[Nva]-NH2; linker 2-10 via mXylylene)	> 50

Same assay, conditions: inhibition of lysis of antibody-sensitized sheep erythrocytes, complete human sera

SMILES	IC50 [µM]
CCC[C@H](NC(=O)[C@@H]1CSCc2cccc(c2)CSC[C@H](NC(=O)[C@H](CCC)NC(C)=O)C(=O)N[C@@H](c2ccccc2)C(=O)N[C@@H]([C@@H](C)O)C(=O)N[C@@H](Cc2c[nH]c3ncccc23)C(=O)N[C@@H](CCC(=O)O)C(=O)N[C@@H](Cc2ccc(O)cc2)C(=O)N(C)[C@@H](CO)C(=O)N1)C(N)=O [Compound R3080, [mXylyl(2,9)]Ac-Nvl-C-Pha-T-azaTrp-E-Y-(N-Me)S-C-Nvl-NH2] (Ac-[Nva]C[Phg]T[Trp(7-aza)]EY[NMeS]C[Nva]-NH2; linker 2-9 via mXylylene)	> 50
CCC[C@H](NC(=O)[C@@H]1CSCc2cccc(c2)CSC[C@H](NC(=O)[C@@H](NC(C)=O)C(C)C)C(=O)N[C@@H](c2ccccc2)C(=O)N[C@@H]([C@@H](C)O)C(=O)N[C@@H](Cc2c[nH]c3ncccc23)C(=O)N[C@@H](CCC(=O)O)C(=O)N[C@@H](Cc2ccc(O)cc2)C(=O)N(C)[C@@H](CO)C(=O)N[C@@H](C)C(=O)N1)C(N)=O [Compound R3083, [mXylyl(2,10)]Ac-V-C-Phg-T-azaTrp-E-Y-(N-Me)S-A-C-Nvl-NH2] (Ac-VC[Phg]T[Trp(7-aza)]EY[NMeS]AC[Nva]-NH2; linker 2-10 via mXylylene)	> 25
CCC[C@H](NC(=O)[C@@H]1CSCc2cccc(c2)CSC[C@H](NC(=O)[C@H](CCC)NC(C)=O)C(=O)N[C@@H](c2ccccc2)C(=O)N[C@@H]([C@@H](C)O)C(=O)N[C@@H](Cc2c[nH]c3ncccc23)C(=O)N[C@@H](CCC(=O)O)C(=O)N[C@@H](Cc2ccc(O)cc2)C(=O)N[C@@H](CO)C(=O)N[C@@H](C)C(=O)N1)C(N)=O [Compound R3084, [mXylyl(2,10)]Ac-Nvl-C-Phg-T-azaTrp-E-Y-S-A-C-Nvl-NH2] (Ac-[Nva]C[Phg]T[Trp(7-aza)]EYSAC[Nva]-NH2; linker 2-10 via mXylylene)	> 100
CCC[C@H](NC(=O)[C@@H]1CSCc2cccc(c2)CSC[C@H](NC(=O)[C@H](CCC(=O)O)NC(=O)[C@H](Cc2ccc(O)cc2)NC(=O)[C@H](CO)NC(=O)[C@H](CCC)NC(C)=O)C(=O)N[C@@H](C(C)(C)C)C(=O)N[C@@H](Cc2ccc(O)cc2)C(=O)N[C@@H](Cc2c[nH]c3ncccc23)C(=O)N[C@@H](CCC(=O)O)C(=O)N[C@@H](Cc2ccc(O)cc2)C(=O)N2CCC[C@H]2C(=O)N[C@@H](C2CCCCC2)C(=O)N1)C(N)=O [Compound R3086, [mXylyl(5,13)]Ac-Nvl-S-Y-E-C-Tbg-Y-azaTrp-E-Y-P-Chg-C-Nvl-NH2] (Ac-[Nva]SYEC[Tle]Y[Trp(7-aza)]EYP[Chg]C[Nva]-NH2; linker 5-13 via mXylylene)	> 50
CCC[C@H](NC(=O)[C@@H]1CSCc2cccc(c2)CSC[C@H](NC(=O)[C@H](CCC)NC(C)=O)C(=O)N[C@@H](c2ccccc2OC)C(=O)N[C@@H]([C@@H](C)O)C(=O)N[C@@H](Cc2c[nH]c3ncccc23)C(=O)N[C@@H](CCC(=O)O)C(=O)N[C@@H](Cc2ccc(O)cc2)C(=O)N(C)[C@@H](CO)C(=O)N[C@@H](Cc2c[nH]cn2)C(=O)N1)C(N)=O [Compound R3087, [mXylyl(2,10)]Ac-Nvl-C-(2-OMe)Phg-T-azaTrp-E-Y-(N-Me)S-H-C-Nvl-NH2] (Ac-[Nva]C[Phg(2-OMe)]T[Trp(7-aza)]EY[NMeS]HC[Nva]-NH2; linker 2-10 via mXylylene)	> 25
CCC[C@H](NC(=O)[C@@H]1CSCc2cccc(c2)CSC[C@H](NC(=O)[C@H](CCC)NC(C)=O)C(=O)N[C@@H](c2ccccc2)C(=O)N[C@@H]([C@@H](C)O)C(=O)N[C@@H](Cc2c[nH]c3ccc(F)cc23)C(=O)N[C@@H](CCC(=O)O)C(=O)N[C@@H](Cc2ccc(O)cc2)C(=O)N(C)[C@@H](CO)C(=O)N[C@@H](C)C(=O)N1)C(N)=O [Compound R3088, [mXyly1(2,10)]Ac-Nvl-C-Phg-T-(5-F)W-E-Y-(N-Me)S-A-C-Nvl-NH2] (Ac-[Nva]C[Phg]T[Trp(5-F)]EY[NMeS]AC[Nva]-NH2; linker 2-10 via mXylylene)	> 100
CCC[C@H](NC(=O)[C@@H]1CSCc2cccc(c2)CSC[C@H](NC(=O)[C@@H](NC(C)=O)C2CCCCC2)C(=O)N[C@@H](c2ccccc2)C(=O)N[C@@H]([C@@H](C)O)C(=O)N[C@@H](Cc2c[nH]c3ncccc23)C(=O)N[C@@H](CCC(=O)O)C(=O)N[C@@H](Cc2ccc(O)cc2)C(=O)N(C)[C@@H](CO)C(=O)N[C@@H](C)C(=O)N1)C(N)=O [Compound R3089, [mXylyl(2,10)]Ac-Chg-C-Phg-T-azaTrp-E-Y-(N-Me)S-A-C-Nvl-NH2] (Ac-[Chg]C[Phg]T[Trp(7-aza)]EY[NMeS]AC[Nva]-NH2; linker 2-10 via mXylylene)	> 15
CCC[C@H](NC(=O)[C@@H]1CSCc2cccc(c2)CSC[C@H](NC(=O)[C@H](CCC)NC(C)=O)C(=O)N[C@@H](Cc2ccccc2)C(=O)N[C@@H]([C@@H](C)O)C(=O)N[C@@H](Cc2c[nH]c3ncccc23)C(=O)N[C@@H](CCC(=O)O)C(=O)N[C@@H](Cc2ccc(O)cc2)C(=O)N(C)[C@@H](CO)C(=O)N[C@@H](C)C(=O)N1)C(N)=O [Compound R3090, [mXyly1(2,10)]Ac-Nvl-C-F-T-azaTrp-E-Y-(N-Me)S-A-C-Nvl-NH2] (Ac-[Nva]CFT[Trp(7-aza)]EY[NMeS]AC[Nva]-NH2; linker 2-10 via mXylylene)	> 100
CCC[C@H](NC(=O)[C@@H]1CSCc2cccc(c2)CSC[C@H](NC(=O)[C@H](CCC)NC(C)=O)C(=O)N[C@@H](c2ccccc2)C(=O)N[C@@H]([C@@H](C)O)C(=O)N[C@@H](Cc2c[nH]c3ccccc23)C(=O)N[C@@H](CCC(=O)O)C(=O)N[C@@H](Cc2ccc(O)cc2)C(=O)N(C)[C@@H](CO)C(=O)N[C@@H](C)C(=O)N1)C(N)=O [Compound R3091, [mXylyl(2,10)]Ac-Nvl-C-Phg-T-W-E-Y-(N-Me)S-A-C-Nvl-NH2] (Ac-[Nva]C[Phg]TWEY[NMeS]AC[Nva]-NH2; linker 2-10 via mXylylene)	0.483
CCC[C@H](NC(=O)[C@@H]1CSCc2cccc(c2)CSC[C@H](NC(=O)[C@H](CCC)NC(C)=O)C(=O)N[C@@H](c2ccccc2)C(=O)N[C@@H]([C@@H](C)O)C(=O)N[C@@H](Cc2ccccc2)C(=O)N[C@@H](CCC(=O)O)C(=O)N[C@@H](Cc2ccc(O)cc2)C(=O)N(C)[C@@H](CO)C(=O)N[C@@H](C)C(=O)N1)C(N)=O [Compound R3092, [mXylyl(2,10)]Ac-Nvl-C-Phg-T-F-E-Y-(N-Me)S-A-C-Nvl-NH2] (Ac-[Nva]C[Phg]TFEY[NMeS]AC[Nva]-NH2; linker 2-10 via mXylylene)	> 50
CCC[C@H](NC(=O)[C@@H]1CSCc2cccc(c2)CSC[C@H](NC(=O)[C@H](CCC)NC(C)=O)C(=O)N[C@H](C2CCCCC2)C(=O)N[C@@H]([C@@H](C)O)C(=O)N[C@@H](Cc2c[nH]c3ncccc23)C(=O)N[C@@H](CCC(=O)O)C(=O)N[C@@H](Cc2ccc(O)cc2)C(=O)N(C)[C@@H](CO)C(=O)N[C@@H](C)C(=O)N1)C(N)=O [Compound R3093, [mXylyl(2,10)]Ac-Nvl-C-(D-Chg)-T-azaTrp-E-Y-(N-Me)S-A-C-Nvl-NH2] (Ac-[Nva]C[dChg]T[Trp(7-aza)]EY[NMeS]AC[Nva]-NH2; linker 2-10 via mXylylene)	> 100
CCC[C@H](NC(=O)[C@@H](NC(=O)[C@@H]1CCCN1C(=O)[C@H](Cc1ccc(O)cc1)NC(=O)[C@H](CCC(=O)O)NC(=O)[C@H](Cc1c[nH]c2ccc(OC)cc12)NC(=O)[C@H](Cc1ccc(O)cc1)NC(=O)[C@@H](NC(=O)[C@H](CC(N)=O)NC(=O)[C@H](CCC(=O)O)NC(=O)[C@H](Cc1ccc(O)cc1)NC(C)=O)C(C)(C)C)c1ccccc1)C(N)=O [Compound R3094, Ac-Y-E-N-Tbg-Y-(5-MeO)W-E-Y-P-Phg-Nvl-NH2]	> 100
CCC[C@H](NC(=O)[C@@H]1CSCc2cccc(c2)CSC[C@H](NC(=O)[C@H](CCC)NC(C)=O)C(=O)N[C@@H](c2ccccc2)C(=O)N[C@@H]([C@@H](C)O)C(=O)N[C@@H](Cc2c[nH]c3ncccc23)C(=O)N[C@@H](CCC(=O)O)C(=O)N[C@@H](CCc2ccccc2)C(=O)N(C)[C@@H](CO)C(=O)N[C@@H](C)C(=O)N1)C(N)=O [Compound R3095, [mXyly1(2,10)]Ac-Nvl-C-Phg-T-azaTrp-E-(homo)F-(N-Me)S-A-C-Nvl-NH2] (Ac-[Nva]C[Phg]T[Trp(7-aza)]E[hPhe][NMeS]AC[Nva]-NH2; linker 2-10 via mXylylene)	> 50
CCC[C@H](NC(=O)[C@@H]1CSCc2cccc(c2)CSC[C@H](NC(=O)[C@H](CCC)NC(C)=O)C(=O)N[C@@H](c2ccccc2)C(=O)NC(C)(C)C(=O)N[C@@H](Cc2c[nH]c3ncccc23)C(=O)N[C@@H](CCC(=O)O)C(=O)N[C@@H](Cc2ccc(O)cc2)C(=O)N(C)[C@@H](CO)C(=O)N[C@@H](Cc2c[nH]cn2)C(=O)N1)C(N)=O [Compound R3096, [mXylyl(2,10)]Ac-Nvl-C-Phg-Aib-azaTrp-E-Y-(N-Me)S-H-C-Nvl-NH2] (Ac-[Nva]C[Phg][Aib][Trp(7-aza)]EY[NMeS]HC[Nva]-NH2; linker 2-10 via mXylylene)	> 50
CCC[C@H](NC(=O)[C@@H]1CSCc2cccc(c2)CSC[C@H](NC(=O)[C@H](CCC)NC(C)=O)C(=O)N[C@@H](c2ccccc2)C(=O)N[C@@H]([C@@H](C)O)C(=O)N[C@@H](Cc2c[nH]c3ncccc23)C(=O)N[C@@H](CC(=O)O)C(=O)N[C@@H](Cc2ccc(O)cc2)C(=O)N(C)[C@@H](CO)C(=O)N[C@@H](C)C(=O)N1)C(N)=O [Compound R3097, [mXylyl(2,10)]Ac-Nvl-C-Phg-T-azaTrp-D-Y-(N-Me)S-A-C-Nvl-NH2] (Ac-[Nva]C[Phg]T[Trp(7-aza)]DY[NMeS]AC[Nva]-NH2; linker 2-10 via mXylylene)	> 100
CCC[C@H](NC(=O)[C@@H]1CSCc2cccc(c2)CSC[C@H](NC(=O)[C@H](CCC)NC(C)=O)C(=O)N[C@@H](c2ccccc2)C(=O)N[C@@H]([C@@H](C)O)C(=O)N[C@@H](Cc2c[nH]c3ncccc23)C(=O)N[C@@H](CCC(N)=O)C(=O)N[C@@H](Cc2ccc(O)cc2)C(=O)N(C)[C@@H](CO)C(=O)N[C@@H](C)C(=O)N1)C(N)=O [Compound R3098, [mXylyl(2,10)]Ac-Nvl-C-Phg-T-azaTrp-Q-Y-(N-Me)S-A-C-Nvl-NH2] (Ac-[Nva]C[Phg]T[Trp(7-aza)]QY[NMeS]AC[Nva]-NH2; linker 2-10 via mXylylene)	> 100
